Measured values: article PMC5848165 (Toxins, 2018)
Residues, ends and D or L forms follow the SMILES beside them.

What was measured:
[1] = test system: chimera #1, Nav1.5 (Nav1.7-DII-S3-S4); assay: Whole-cell patch clamp, chimera #1 in HEK293 cells; type: cell-based, rat Nav1.5 / human Nav1.7; details: −10 mV from −80 mV
Text: Many animal toxins alter activation or inactivation of sodium channels by binding to the S3–S4 regions of channels, which are probably the external linkers or voltage sensors of sodium channels. α-Scorpion toxins slow down fast-inactivation of sodium channels by binding to the extracellular linker loop of DIVS3-S4 (neurotoxin site 3). Meanwhile, β-scorpion toxins that interact with DIIS3-S4 linker enhance the activation of sodium channels by trapping DII voltage sensor in an activated state. As Nav1.5 channel is resistant to the inhibition of JZTX-34, we investigated the binding site of JZTX-34 to Nav1.7 by constructing chimeric channels between Nav1.5 and Nav1.7. […]
The HEK293T cells were maintained in standard culture conditions (5% CO2 and 37 °C). […] After culturing for 36–72 h, cells with obvious green fluorescence were selected for sodium currents recordings the internal solution for sodium currents recording that contained (in mM) 140 CsF, 5 NaCl, 10 HEPES, 3 Na2-ATP, and 10 EGTA. […]
Sodium currents were recorded from DRG, HEK293, and ND cells by the whole-cell patch-clamp technique at 25 °C. […] Experiments date were acquired from whole-cell Axon 700B patch clamp amplifier (Molecular Devices, Sunnyvale, CA, USA) and analyzed by the program Clampfit10.0 (Molecular Devices, Sunnyvale, CA, USA) and Sigmaplot. […]

[2] = test system: formalin-induced paw licking response in mice; assay: Formalin-induced paw licking; type: in vivo, mouse (Kunming); details: for paw licking time, early phase: control 145.5 s; for paw licking time, early phase / paw licking time, late phase: n = 6; for paw licking time, late phase: control 414.5 s
Protocol: Since Nav1.7 plays an important role in pain, the analgesic effects of JZTX-34 were examined in three animal models (formalin-induced paw licking, acetic acid-induced writhing, and hot plate). Intraplantar injection of formalin causes pain and can be divided into two phases. The early phase was neurogenic pain and usually occurred within […]), and the late phase was inflammatory pain lasting from 15 to 30 min).
Figure 6 Effects of JZTX-34 on pain. (A) Effects of JZTX-34 on the early phase (0–5 min) and late phase (15–30 min) of formalin-induced paw licking response in mice. (B) Effects of JZTX-34 on the acetic acid-induced writhing response in mice. (C)Effects of JZTX-34 on the hot plate test in mice.
The synthesized JZTX-34 was obtained according to the procedure as previously described. […] Rats (Sprague-Dawley) and Kunming mice were maintained in the Laboratory of Protein Chemistry of Hunan Normal University. All of the experimental involving animals were approved by the Animal Care and Use Committee of Hunan Normal University (2016-273, 13 October 2016).
Formalin test was performed according to the method described previously. […] After test samples were intraperitoneally (i.p.) injected, 5% formalin (20 μL) was injected to the plantar surface of right hind paw. The time spent licking the injected paw was counted every 5 min. Phase I was defined as 0–10 min, and Phase II defined as […].
Data from Axon 700B patch clamp were analyzed by Clampfit10.0 (Molecular Devices, Sunnyvale, CA, USA). Dose-response curves were fitted by the Hill logistic equation: y = 1 − (1 − fmax)/[…]. In this equation, n stands an empirical Hill coefficient and fmax is the fraction of current resistant to inhibition at high toxin (Tx) concentration. The G-V curves were obtained by calculating the conductance (G) at each voltage (V) using the equation G = I/(V1 − Vrev), with Vrev being the reversal potential determined for each cell individually. G-V curves were fitted using a Boltzmann equation—y = 1/(1 + exp[(Va − V)/κ])—in which Va, V, and κ represent midpoint voltage of kinetics, test potential, and slope factor, respectively. […] Statistical significance was calculated using Student’s t-test and was defined as p < 0.05.

Structure (SMILES): CC(C)C[C@@H]1NC(=O)[C@H](Cc2c[nH]c3ccccc23)NC(=O)[C@H](CCC(=O)O)NC(=O)[C@H](CCCNC(=N)N)NC(=O)[C@@H](NC(=O)[C@H](C)N)CSSC[C@@H]2NC(=O)[C@@H]3CSSC[C@@H](C(=O)N[C@H](C(=O)N[C@@H](Cc4c[nH]c5ccccc45)C(=O)N[C@@H](CC(=O)O)C(=O)N[C@@H](Cc4c[nH]c5ccccc45)C(=O)N[C@H](C(=O)N[C@H](C(=O)O)C(C)C)[C@@H](C)O)C(C)C)NC(=O)[C@H](Cc4c[nH]cn4)NC(=O)[C@H](Cc4ccc(O)cc4)NC(=O)[C@@H]4CCCN4C(=O)[C@H](Cc4c[nH]c5ccccc45)NC(=O)[C@H](CCCCN)NC(=O)[C@H](CCCCN)NC(=O)[C@H](CCCNC(=N)N)NC(=O)[C@H](CSSC[C@H](NC(=O)CNC(=O)CNC1=O)C(=O)N[C@@H](CO)C(=O)N[C@@H](CCCCN)C(=O)N[C@@H](CC(=O)O)C(=O)N[C@@H](C)C(=O)N[C@@H](CC(=O)O)C(=O)N3)NC(=O)[C@H](CCC(=O)O)NC(=O)[C@H](CC(C)C)NC(=O)[C@H](Cc1c[nH]cn1)NC(=O)[C@H](C)NC2=O [JZTX-34, Jingzhaotoxin-34] (HELM PEPTIDE1{A.C.R.E.W.L.G.G.C.S.K.D.A.D.C.C.A.H.L.E.C.R.K.K.W.P.Y.H.C.V.W.D.W.T.V}$PEPTIDE1,PEPTIDE1,2:R3-16:R3|PEPTIDE1,PEPTIDE1,9:R3-21:R3|PEPTIDE1,PEPTIDE1,15:R3-29:R3$$$V2.0; N-terminus and C-terminus assumed)
- inhibition of chimera #1 currents ([1]; 1 µM): 47.6 ± 3.6%
- inhibition of chimera #1 currents ([1]; 10 µM): 79.5 ± 2.8%
- paw licking time, early phase ([2]; 0.5 mg/kg i.p.): 125.5 s
- paw licking time, late phase ([2]; 0.5 mg/kg i.p.): 282.2 s
- paw licking time, early phase ([2]; 1 mg/kg i.p.): 50.1 s
- paw licking time, late phase ([2]; 1 mg/kg i.p.): 263.6 s
- paw licking time, early phase ([2]; 2 mg/kg i.p.): 34.7 s
- paw licking time, late phase ([2]; 2 mg/kg i.p.): 148.0 s
- formalin first phase, efficacy vs morphine ([2]; JZTX-34 2 mg/kg vs morphine 5 mg/kg): equipotent with morphine (5 mg/kg)
